Literature values in patent publication US20240252489A1, “REPEATED ADMINISTRATION OF DIHYDROERGOTAMINE FOR TREATMENT OF FREQUENT MIGRAINE HEADACHES” (Woodward Specialty LLC, priority 2020, published 2024).

Test system: patients with frequent migraine headaches
Settings: 15 min after administration; reported in the literature

N[C@@H]1c2cccnc2[C@H](OC(=O)N2CCC(n3c(=O)[nH]c4ncccc43)CC2)CC[C@H]1c1cccc(F)c1F [Rimegepant]
subjects having pain relief: 8%
